Each structure is given as a SMILES string.

Data set [1] relates to nitrosoamine-induced pancreatic cancer. Briefly: laser irradiation to the extirpated organ (excited fluorescent spectrum, N2-PLS measurement), tumor to tissue ratio. Format: in vivo, Golden hamsters. The conditions noted are these: i.v. 25 mg/kg bodyweight, organs extirpated at 24 hours after administration. Here is the method:
Golden hamsters (males, 5 per group, bodyweight approximately 150 g) were implanted subcutaneously tumor cells of the nitrosoamine-induced pancreatic cancer. After 14 to 21 days following implantation, animals were intravenously (i.v.) administered the test substance EG-Ga-DP-diGly (10 mg/ml) which had been diluted with phosphate buffer at 25 mg/kg bodyweight. At 24 hours after administration, the organs including the tumor were extirpated, irradiated with N2-pulsed laser (N2, 337 nm, 2 ns, 400 - 1000 nm), and measured of excited fluorescent spectrum. The wavelengths of 600 - 900 nm were studied using the peak wavelength of NADH at 470 nm as a reference. (N2-PLS measurement). […] (Tumor to tissue ratio).
Excited fluorescent spectra of the organs extirpated at 24 hours after administration were measured, and the peak wavelength at 600 - 900 nm was calculated by setting the peak wavelength at 470 nm as the reference 1. As fluorescence in Mn, Fe and Cu complexes is not sufficiently intense as to enable N2-PLS measurement, the extraction method was applied to these compounds. At 24 hours following administration, the organs were extracted with an organic solvent (such as chloroform-methanol) via acetone powder, and the obtained extract was measured of UV or HPLC to calculate the tumor to tissue ratio.

Data set [2] has the same test system. Briefly: in vivo hemorrhagic necrosis effect. The conditions noted are these: for Hemorrhagic necrosis effect: intensity of hemorrhagic necrosis at 24 hours following i.v. administration, and pathological study; for photograph of cancer masses (Fig. 3): 24 hours after administration. Also noted: species or system hamsters; key to Hemorrhagic necrosis effect: four scales of G4, G3, G2 and G1; four scales of G4, G3, G2 and G1; four scales of G4, G3, G2 and G1; four scales of G4, G3, G2 and G1. Here is the method: Cancer bearing hamsters of Experiment 1 were i.v. administered the test substance C6-Ga-DP-diAsp (10) (10 mg/ml) which had been diluted with phosphate buffer at 25 mg/kg bodyweight and 12.5 mg/kg bodyweight respectively. The animals were exsanguinated and autopsied at 24 hours after administration, and observed.
The evaluation was based on the four scales of G4, G3, G2 and G1.

Regarding `CC1=C(CCC(=O)NC(CC(=O)O)C(=O)O)C2=NC1=Cc1c(C)c(C(C)OCCO)c3[n]1[Ga][n]1c(c(C)c(CCC(=O)NC(CC(=O)O)C(=O)O)c1=C2)=CC1=NC(=C3)C(C)=C1C(C)OCCO` (stereo not drawn) [(3) EG-Ga-DP-diAsp, 2,4-bis[1-(2-hydroxyethyloxy)ethyl]-Ga-deuteroporphynyl diaspartic acid], in data set [1], the tumor/tissue cancer/ kidney stood at 3.45, the tumor/tissue cancer/ liver was found to be 3.00 and the tumor/tissue cancer/ lung is 2.87.
`CCCCCCCCOC(C)C1=C(C)C2=Cc3c(C(C)OCCCCCCCC)c(C)c4[n]3[Mn][n]3c(c(C)c(CCC(=O)NC(CC(=O)O)C(=O)O)c3=CC3=NC(=C4)C(C)=C3CCC(=O)NC(CC(=O)O)C(=O)O)=CC1=N2` (stereo not drawn) [(36) C8-Mn-DP-diAsp, 2,4-bis(1-octyloxyethyl)-Mn-deuteroporphynyl diaspartic acid]: in data set [2], the Hemorrhagic necrosis effect entry is listed as “G3”.
For `CCCCCCCCCCOC(C)C1=C(C)C2=Cc3c(C(C)OCCCCCCCCCC)c(C)c4[n]3[Mn][n]3c(c(C)c(CCC(=O)NCC(=O)NC(CC(=O)O)C(=O)O)c3=CC3=NC(=C4)C(C)=C3CCC(=O)NCC(=O)NC(CC(=O)O)C(=O)O)=CC1=N2` (stereo not drawn) [(39) C10-Mn-DP-diGly-diAsp, 2,4-bis(1-decyloxyethyl)-Mn-deuteroporphynyl diglycyldiaspartic acid], the Hemorrhagic necrosis effect result in data set [2] is reported as “G2”.
On the same count and under the same terms, as for `CCCCCCCCCCOC(C)C1=C(C)C2=Cc3c(C(C)OCCCCCCCCCC)c(C)c4[n]3[Mn][n]3c(c(C)c(CCC(=O)NC(CC(C)C)C(=O)NC(CC(=O)O)C(=O)O)c3=CC3=NC(=C4)C(C)=C3CCC(=O)NC(CC(C)C)C(=O)NC(CC(=O)O)C(=O)O)=CC1=N2` (stereo not drawn) [(40) C10-Mn-DP-diLeu-diAsp, 2,4-bis(1-decyloxyethyl)-Mn-deuteroporphynyl dileucyldiaspartic acid], the entry is “G2”.
On to `CCCCCCCCCCOC(C)C1=C(C)C2=Cc3c(C(C)OCCCCCCCCCC)c(C)c4[n]3[Mn][n]3c(c(C)c(CCC(=O)NC(Cc5ccccc5)C(=O)NC(CC(=O)O)C(=O)O)c3=CC3=NC(=C4)C(C)=C3CCC(=O)NC(Cc3ccccc3)C(=O)NC(CC(=O)O)C(=O)O)=CC1=N2` (stereo not drawn) [(41) C10-Mn-DP-diPhe-diAsp, 2,4-bis(1-decyloxyethyl)-Mn-deuteroporphynyl diphenylalanyldiaspartic acid], for which the Hemorrhagic necrosis effect entry in data set [2] is “G2”.
As to `CC(C)=CCC/C(C)=C/COC(C)C1=C(C)C2=Cc3c(C(C)OC/C=C(\C)CCC=C(C)C)c(C)c4[n]3[Mn][n]3c(c(C)c(CCC(=O)NC(CC(=O)O)C(=O)O)c3=CC3=NC(=C4)C(C)=C3CCC(=O)NC(CC(=O)O)C(=O)O)=CC1=N2` (stereo not drawn) [(42) C10(Gera)-Mn-DP-diAsp, 2,4-bis(1-geranyloxyethyl)-Mn-deuteroporphynyl diaspartic acid], in data set [2], the “photograph of cancer masses (Fig. 3)” value is reported as “hemorrhagic necrosis” and the Hemorrhagic necrosis effect result was “G3”.
With `CC(C)=CCCC(C)CCOC(C)C1=C(C)C2=Cc3c(C(C)OCCC(C)CCC=C(C)C)c(C)c4[n]3[Mn][n]3c(c(C)c(CCC(=O)NC(CC(=O)O)C(=O)O)c3=CC3=NC(=C4)C(C)=C3CCC(=O)NC(CC(=O)O)C(=O)O)=CC1=N2` (stereo not drawn) [(43) C10(Citro)-Mn-DP-diAsp, 2,4-bis(1-citronellyloxyethyl)-Mn-deuteroporphynyl diaspartic acid], the Hemorrhagic necrosis effect result in data set [2] is given as “G3”.
As for `CC1=C(CCC(=O)NC(CC(=O)O)C(=O)O)c2cc3[nH]c(cc4nc(cc5[nH]c(cc1n2)c(C(C)OCCC(C)CCCC(C)C)c5C)C(C(C)OCCC(C)CCCC(C)C)=C4C)c(C)c3CCC(=O)NC(CC(=O)O)C(=O)O.[Mn]` (stereo not drawn) [(44) C10(H2Citro)-Mn-DP-diAsp, 2,4-bis(1-dihydrocitronellyloxyethyl)-Mn-deuteroporphynyl diaspartic acid], the Hemorrhagic necrosis effect entry in data set [2] is listed as “G4”.
Consider `C=CC1=C(C)C2=Cc3c(C(C)OCCC(C)CCCC(C)C)c(C)c4[n]3[Mn][n]3c(c(C)c(CCC(=O)NC(CC(=O)O)C(=O)O)c3=CC3=NC(=C4)C(C)=C3CCC(=O)NC(CC(=O)O)C(=O)O)=CC1=N2` (stereo not drawn) [(45) C10(H2Citro,mono)-Mn-DP-diAsp, 2-(1-dihydrocitronellyloxyethyl)-4-ethenyl-Mn-deuteroporphynyl diaspartic acid], for which the Hemorrhagic necrosis effect entry in data set [2] is recorded as “G2”.
The same measure, in the same setting: the result for `C=CC1=C(C)C2=Cc3c(C(C)OCCCCCCCCCCCC)c(C)c4[n]3[Mn][n]3c(c(C)c(CCC(=O)NC(CC(=O)O)C(=O)O)c3=CC3=NC(=C4)C(C)=C3CCC(=O)NC(CC(=O)O)C(=O)O)=CC1=N2` (stereo not drawn) [(49) C12(mono)-Mn-DP-diAsp, 2-(1-dodecyloxyethyl)-4-ethenyl-Mn-deuteroporphynyl diaspartic acid] reads “G2”.
Same read-out and setting: the result for `CCCCCCCCCCCCCCOC(C)C1=C(C)C2=Cc3c(C(C)OCCCCCCCCCCCCCC)c(C)c4[n]3[Mn][n]3c(c(C)c(CCC(=O)NC(CC(=O)O)C(=O)O)c3=CC3=NC(=C4)C(C)=C3CCC(=O)NC(CC(=O)O)C(=O)O)=CC1=N2` (stereo not drawn) [(51) C14-Mn-DP-diAsp, 2,4-bis(1-tetradecyloxyethyl)-Mn-deuteroporphynyl diaspartic acid] reads “G3”; that for `CC1=C(CCC(=O)NC(CC(=O)O)C(=O)O)c2cc3[nH]c(cc4nc(cc5[nH]c(cc1n2)c(C(C)OCC1CCCO1)c5C)C(C(C)OCC1CCCO1)=C4C)c(C)c3CCC(=O)NC(CC(=O)O)C(=O)O.[Mn]` (stereo not drawn) [(55) H4Fran-Mn-DP-diAsp, 2,4-bis(1-tetrahydrofurfuryloxyethyl)-Mn-deuteroporphynyl diaspartic acid], “G2”.
In the case of `CC1=C(CCC(=O)NC(CC(=O)O)C(=O)O)C2=NC1=Cc1c(C)c(C(C)OCc3cccnc3)c3[n]1[Mn][n]1c(c(C)c(CCC(=O)NC(CC(=O)O)C(=O)O)c1=C2)=CC1=NC(=C3)C(C)=C1C(C)OCc1cccnc1` (stereo not drawn) [(57) Nct-Mn-DP-diAsp, 2,4-bis(1-nicotynyloxyethyl)-Mn-deuteroporphynyl diaspartic acid], the Hemorrhagic necrosis effect entry in data set [2] was “G2”.
With `CCCCCCCCOC(C)C1=C(C)C2=Cc3c(C(C)OCCCCCCCC)c(C)c4[n]3[Fe][n]3c(c(C)c(CCC(=O)NC(CC(=O)O)C(=O)O)c3=CC3=NC(=C4)C(C)=C3CCC(=O)NC(CC(=O)O)C(=O)O)=CC1=N2` (stereo not drawn) [(62) C8-Fe-DP-diAsp, 2,4-bis(1-octyloxyethyl)-Fe-deuteroporphynyl diaspartic acid], in data set [2], the “photograph of cancer masses (Fig. 3)” value is reported as “hemorrhagic necrosis” and the Hemorrhagic necrosis effect entry was “G3”.
On to `CCCCCCCCCCCCOC(C)C1=C(C)C2=Cc3c(C(C)OCCCCCCCCCCCC)c(C)c4[n]3[Fe][n]3c(c(C)c(CCC(=O)NC(CC(=O)O)C(=O)O)c3=CC3=NC(=C4)C(C)=C3CCC(=O)NC(CC(=O)O)C(=O)O)=CC1=N2` (stereo not drawn) [(64) C12-Fe-DP-diAsp, 2,4-bis(1-dodecyloxyethyl)-Fe-deuteroporphynyl diaspartic acid], for which the Hemorrhagic necrosis effect result in data set [2] is given as “G3”.
Turning to `CCCCCCCCCCOC(C)C1=C(C)C2=Cc3c(C(C)OCCCCCCCCCC)c(C)c4[n]3[Co][n]3c(c(C)c(CCC(=O)NC(CC(=O)O)C(=O)O)c3=CC3=NC(=C4)C(C)=C3CCC(=O)NC(CC(=O)O)C(=O)O)=CC1=N2` (stereo not drawn) [(66) C10-Co-DP-diAsp, 2,4-bis(1-decyloxyethyl)-Co-deuteroporphynyl diaspartic acid], in data set [2], the Hemorrhagic necrosis effect entry was “G1”.
Regarding `CCCCCCCCCCCCOC(C)C1=C(C)c2cc3[nH]c(cc4nc(cc5[nH]c(cc1n2)c(C)c5C(C)OCCCCCCCCCCCC)C(C)=C4CCC(=O)NC(CC(=O)O)C(=O)O)c(CCC(=O)NC(CC(=O)O)C(=O)O)c3C.[Co]` (stereo not drawn) [(67) C12-Co-DP-diAsp, 2,4-bis(1-dodecyloxyethyl)-Co-deuteroporphynyl diaspartic acid], the Hemorrhagic necrosis effect entry in data set [2] is given as “G1”.

(Values after patent EP0350948B1, “Porphyrin derivatives” (TOYOHAKKA KOGYO KABUSHIKI KAISHA, priority 1988, dated 1990).)
